We go through two compounds from patent US20240360177A1, “PEPTIDES WITH ANTIMICROBIAL ACTIVITIES” (priority 2021, published 2024).

Converted amounts (≈) assume the structure as drawn. Where two headings read alike, the source gives them in different places. Non-standard residues stand in square brackets, D forms with d. Residues, ends and D or L forms follow the SMILES beside them. βAla = NCCC(=O)O

Data set [1] relates to C. albicans. In words: microbe, parasite or virus in culture. The conditions noted are these: Candida albicans, ATCC90028, 24 h, read-out: MIC C. albicans.
For data set [2], the system named is C. glabrata. Description: microbe, parasite or virus in culture. The settings on record: Nakaseomyces glabratus, ATCC90030, 24 h, read-out: MIC C. glabrata.
Data set [3] relates to C. parapsilosis. Description: microbe, parasite or virus in culture. The conditions noted are these: Lodderomyces parapsilosis, ATCC22019, 24 h, read-out: MIC C. parapsilosis.
Data set [4] deals with C. krusei. In words: microbe, parasite or virus in culture. The settings on record: Pichia kudriavzevii, 24 h, read-out: MIC C. krusei.
The test system of data set [5] is C. auris. Description: microbe, parasite or virus in culture. The settings on record: Candidozyma auris, 24 h, read-out: MIC C. auris.
The subject of data set [6] is C. tropicalis. Description: microbe, parasite or virus in culture. The settings on record: Candida tropicalis, ATCC90874, 24 h, read-out: MIC C. tropicalis.
Data set [7] deals with C. neoformans. Description: microbe, parasite or virus in culture. The conditions noted are these: Cryptococcus neoformans, ATCC90112, 72 h, read-out: MIC C. neoformans.
Data set [8] concerns C. gattii. In words: microbe, parasite or virus in culture. The conditions noted are these: Cryptococcus gattii, 72 h, read-out: MIC C. gattii.
Data set [9] concerns Trichophyton rubrum ATCC MYA-4438. Description: microbe, parasite or virus in culture. The conditions noted are these: read-out: MIC Trichophyton rubrum.
In data set [10] the test system is Epidermophyton floccosum ATCC 52066. In words: microbe, parasite or virus in culture. The conditions noted are these: ATCC52066, read-out: MIC Epidermophyton floccosum.
The test system of data set [11] is Microsporum gypseum ATCC 14683. In words: microbe, parasite or virus in culture. The conditions noted are these: Nannizzia gypsea, ATCC14683, read-out: MIC Microsporum gypseum.
Data set [12] in a line: Acute toxicity in CD-1 mice. The conditions noted are these: both sexes, mouse, in vivo. Here is the method: Acute toxicity and subacute toxicity of ACPs were tested in CD-1 mice. In the acute toxicity study, groups of CD-1 male or female mice were administered single intravenous or intraperitoneal escalating doses (n=2-3 per dose) of the peptides dissolved in normal saline for injection or in phosphate buffered saline. The intravenous dose was administered via tail vein with a slow push over 15-20 seconds. Doses were escalated based on tolerability.

Data set [13] in a line: Subacute toxicity in CD-1 mice. It is filed as in vivo. The settings on record: daily IP for 7 days. Here is the method: In the subacute toxicity study, groups of CD-1 male or female mice were administered seven consecutive daily intraperitoneal doses (n=3 per dose) of the peptides (SEQ ID NO: 7, SEQ ID NO: 29, SEQ ID NO: 53) dissolved in normal saline for injection. Each peptide was evaluated at 2 to 3 dose levels ranging from 2.5 to 7.5 mg/kg/day. Mice were weighed at least once daily and observed at least twice daily for any abnormal findings and determination of overall health. At 24 hrs after the last dose, mice were humanely euthanized, with blood collected through cardiac puncture into K2EDTA microtainers to assess hematological parameters. All three peptides were tolerated at the highest dose evaluated (7.5 mg/kg/day) for 7 days.

A further data set deals with T1, Endoproteinase Arg-C (Hathewaya histolytica, UniProt P09870).
T1 construct: purchased Sigma Aldrich 11370529001
T1 sequence (P09870 51-181): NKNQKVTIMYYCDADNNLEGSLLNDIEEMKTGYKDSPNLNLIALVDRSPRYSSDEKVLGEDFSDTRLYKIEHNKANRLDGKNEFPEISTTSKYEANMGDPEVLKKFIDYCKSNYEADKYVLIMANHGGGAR
T1 sequence (P09870 191-526): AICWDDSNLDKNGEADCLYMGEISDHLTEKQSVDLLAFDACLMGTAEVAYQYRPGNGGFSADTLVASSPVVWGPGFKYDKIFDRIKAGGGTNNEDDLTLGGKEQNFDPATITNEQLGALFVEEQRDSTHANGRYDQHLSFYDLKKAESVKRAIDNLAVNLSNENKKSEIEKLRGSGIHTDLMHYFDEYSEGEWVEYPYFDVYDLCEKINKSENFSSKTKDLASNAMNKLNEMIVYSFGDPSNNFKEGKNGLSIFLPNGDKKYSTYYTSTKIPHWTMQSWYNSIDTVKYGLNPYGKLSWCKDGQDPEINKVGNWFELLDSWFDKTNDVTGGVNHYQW
Description: Endoproteinase Arg-C digestion stability. It is filed as in vitro ADME. The conditions noted are these: 37° C.

Data set [14] in a line: Plasma pharmacokinetics after single IV or IP dose in mice. It is filed as in vivo, CD-1 mice. Here is the method:
The in vitro enzymatic and serum stability of the peptides is manifested by the in vivo plasma pharmacokinetic (PK) profile. A single 5 mg/kg intravenous injection (via tail vein) and a single 7.5 mg/kg intraperitoneal dose of SEQ ID NO: 7 were administered to 2 groups of CD-1 mice (n=3 per group). […] Serial blood samples were collected from the saphenous vein into EDTA-K2 as anti-coagulant at time points up to 4 hrs or 8 hrs after the intravenous or intraperitoneal doses. Plasma was separated and analyzed by an LC-MS/MS method as follows. Due to the small blood volume collected from each mouse, the plasma was pooled from 3 mice before analysis. A 50 μL of plasma was protein precipitated with a 100 μL solution of 300 ng/mL TAT peptide ([…]; SEQ ID NO: 99) as the internal standard in 5% trichloroacetic acid. After centrifugation, an aliquot of the supernatant was injected onto an HPLC column (Waters ACQUITY UPLC HSS T3, 2.1*50 mm, 1.8 μm) eluted with a gradient of mobile phase containing 0.1% perfluoropentanoic acid (PFPA) in water and 0.1% PFPA in acetonitrile. The peptide and the internal standard were detected using a Triple Quad 6500+ mass spectrometer operated with electro-spray ionization in the positive-ion SRM mode. The calibration curve range was from 10 to 4000 ng/mL. The mean plasma concentration of SEQ ID NO: 7 after the single intravenous and intraperitoneal doses are depicted in FIG. 2.
C0 or Cmax is concentration at time of injection for IV dose, or maximal concentration after IP dose; tmax is the time when C0 or Cmax was observed; t1/2 is plasma half-life; AUC is area under the plasma concentration vs. time curve; F is absolute bioavailability.

Data set [15] has as its system C. albicans. The conditions noted are these: 24 h.
Data set [16] deals with C. glabrata. The conditions noted are these: 24 h.
Data set [17] deals with C. parapsilosis. The conditions noted are these: 24 h.
The test system of data set [18] is C. krusei. The settings on record: 24 h.
Data set [19] relates to C. auris. The settings on record: 24 h.
The subject of data set [20] is C. tropicalis. The settings on record: 24 h.
Another data set has as its system C. dubliniensis. The settings on record: 24 h.
The subject of data set [21] is C. neoformans. The conditions noted are these: 72 h.
In data set [22] the test system is C. gattii. The settings on record: 72 h.
Another data set has as its system Coccidioides species. The conditions noted are these: N = 3 strains; 48-72 hrs; >50% inhibition.
Another data set relates to Rhizopus arrhizus. The conditions noted are these: 24 h.
The next data set has as its system Paecilomyces variotii. The settings on record: 48 h.
A short description of data set [23]: in vitro. The conditions noted are these: human, EC50 cytotoxicity in HepG2, intracellular ATP assay.
A short description of data set [24]: in vitro. The conditions noted are these: human, human serum, full strength.
[25] abbreviates: CD-1, mouse, IP 7.5 mg/kg, plasma.
Where [26] appears, read: CD-1, mouse, IV 5 mg/kg, plasma.

`CC[C@H](C)C[C@H](C)CCCCCCCCC(=O)N[C@H]1C[C@@H](O)[C@@H](NCCN)NC(=O)[C@@H]2[C@@H](O)CCN2C(=O)[C@H]([C@H](O)CCN)NC(=O)[C@H]([C@H](O)[C@@H](O)c2ccc(O)cc2)NC(=O)[C@@H]2C[C@@H](O)CN2C(=O)[C@H]([C@@H](C)O)NC1=O` [CAS, caspofungin]: the “MIC Range Fusarium spp.” value against Fusarium spp. (N = 3 strains, 48 hrs) came to 32 µg/mL (≈ 29.3 µM). The “MIC Range Scedosporium spp.” value in the data set with Scedosporium spp. (N = 2 strains, 72 hrs) was found to be 32 µg/mL (≈ 29.3 µM). In addition, the MIC in the data set with C. albicans [1] turned out to be 0.03 µg/mL (≈ 0.0274 µM); in the data set on C. glabrata [2] it was 0.06 µg/mL (≈ 0.0549 µM); in the data set on C. parapsilosis [3] it was 0.25 µg/mL (≈ 0.229 µM); in the data set on C. krusei [4], 0.25 µg/mL (≈ 0.229 µM); with C. auris [5], 0.06 µg/mL (≈ 0.0549 µM); in the data set on C. tropicalis [6], 0.03 µg/mL (≈ 0.0274 µM). For the same compound, the MIC with C. neoformans [7] stood at 16 µg/mL (≈ 14.6 µM); in the data set with C. gattii [8], 16 µg/mL (≈ 14.6 µM); in data set [9], 2 µg/mL (≈ 1.83 µM); in data set [10], 0.06 µg/mL (≈ 0.0549 µM); in data set [11], 0.12 µg/mL (≈ 0.11 µM).
On to `N=C(N)NCCC[C@@H](N)C(=O)N[C@@H](CCCNC(=N)N)C(=O)N[C@H](CCCNC(=N)N)C(=O)NCCC(=O)N[C@H](CCCNC(=N)N)C(=O)N[C@@H](CCCNC(=N)N)C(=O)N[C@H](CCCNC(=N)N)C(=O)NCCC(=O)N[C@H](CCCNC(=N)N)C(=O)N[C@@H](CCCNC(=N)N)C(=O)N[C@H](CCCNC(=N)N)C(=O)N[C@@H](CCCNC(=N)N)C(=O)NCCC(=O)N[C@H](CCCNC(=N)N)C(=O)N[C@@H](CCCNC(=N)N)C(=O)N[C@H](CCCNC(=N)N)C(=O)N[C@@H](CCCNC(=N)N)C(N)=O` [SEQ ID NO: 7, rRr-(Apr)-rRr-(Apr)-rRrR-(Apr)-rRrR-NH2] (H-[dR]R[dR][βAla][dR]R[dR][βAla][dR]R[dR]R[βAla][dR]R[dR]R-NH2), for which the MTD in data set [12] (single IP dose, read-out: Tolerated single intraperitoneal dose) was 10 to 15 mg/kg. Also, in data set [12] (single IV dose via tail vein, read-out: Tolerated single intravenous dose), the MTD fell in the range of 5 to 7.5 mg/kg. Further, in data set [13], the “Tolerated dose (highest dose evaluated)” value is reported as 7.5 mg/kg/day. Besides, the “Clinical or hematological adverse effects” value in data set [13] (up to 7.5 mg/kg/day) was “No significant clinical or hematological adverse effects were observed”. Further, at Endoproteinase Arg-C (Endoproteinase Arg-C (isolated enzyme), read-out: Degradation half-life with Endoproteinase Arg-C (converted)), the half-life at 427 μg/mL was ~6 h. Besides, the share remaining at 6 h, 427 μg/mL at Endoproteinase Arg-C (Endoproteinase Arg-C, peptide 427 μg/mL, enzyme 3 μg/mL, 6 hrs, read-out: Percent peptide remaining after incubation with Endoproteinase Arg-C) amounted to 50.5%. Moreover, in data set [14] (setting [25]), the AUC amounted to 4740 ng·h/mL, the Cmax stood at 1750 ng/mL, the Tmax was found to be 1 h and the half-life was 1.69 h. Besides, in data set [14] (setting [26]), the AUC worked out at 4420 ng·h/mL, the C0 is 4480 ng/mL, the Tmax turned out to be 0 h and the half-life was 1.43 h. Besides, in [14] (CD-1, mouse, plasma, IP 7.5 mg/kg, read-out: F (absolute bioavailability)), the bioavailability was 74.8%. Besides, in data set [14] (single 5 mg/kg IV and single 7.5 mg/kg IP), the “Tolerability of the PK doses” value is on record as “well tolerated”. Besides, in the data set with C. albicans [15], the “MIC C. albicans” value is 0.5 µg/mL (≈ 0.207 µM). The “MIC C. glabrata” value in the data set with C. glabrata [16] turned out to be 0.5 µg/mL (≈ 0.207 µM). Further, the “MIC C. parapsilosis” value with C. parapsilosis [17] came to 0.12 µg/mL (≈ 0.0497 µM). Further, in the data set on C. krusei [18], the “MIC C. krusei” value amounted to 0.5 µg/mL (≈ 0.207 µM). Further, in the data set with C. auris [19], the “MIC C. auris” value was 1 µg/mL (≈ 0.414 µM). The “MIC C. tropicalis” value against C. tropicalis [20] turned out to be 0.25 µg/mL (≈ 0.103 µM). Also, the “MIC C. dubliniensis” value in the data set with C. dubliniensis is 0.25 µg/mL (≈ 0.103 µM). The “MIC C. neoformans” value against C. neoformans [21] turned out to be 0.25 µg/mL (≈ 0.103 µM). Besides, the “MIC C. gattii” value against C. gattii [22] was determined as 0.25 µg/mL (≈ 0.103 µM). Also, in the data set with Coccidioides species, the “MIC Range Coccidioides species” value was 0.25 to 0.5 µg/mL. Besides, in the data set with Fusarium spp. (48 h), the “MIC Range Fusarium spp.” value is 0.12 to 0.5 µg/mL. For the same compound, in the data set on Scedosporium spp. (72 h), the “MIC Range Scedosporium spp.” value is ≤0.12 µg/mL. Moreover, in the data set with Lomentospora prolificans, the “MIC Range Lomentospora prolificans” value is ≤0.12 µg/mL. For the same compound, the “MIC Range Rhizopus arrhizus” value against Rhizopus arrhizus lay in the range of 1 to 8 µg/mL. Also, the “MIC Range Paecilomyces variotii” value against Paecilomyces variotii turned out to be 0.25 µg/mL (≈ 0.103 µM). Also, in the data set with Candida spp., the “MIC50 Candida species” value was 0.5 µg/mL (≈ 0.207 µM) and the “MIC90 Candida species” value turned out to be 1 µg/mL (≈ 0.414 µM). For the same compound, the EC50 in the data set “in vitro [23]” was > 300 µg/mL. In addition, the share remaining at 2 h, 5 μM in the data set “in vitro [24]” was ~100%.
